One assay addresses T1, CDK2/cyclin A2 (Homo sapiens, UniProt P24941).
T1 construct: purchased Carna Biosciences, Inc. QS S Assist CDK2/Cyclin A2_FP Kit
Put plainly: Human CDK2/cyclin A2 inhibitory activity (QS S Assist CDK2/Cyclin A2_FP Kit, IMAP fluorescence polarization). Format: biochemical. The conditions noted are these: 50% inhibitory concentration against CDK2/cyclin A2, given as class symbol. In short, it runs like this: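 Kinase activity read as fluorescence polarization (485/535 nm) after phosphorylated fluorescent substrate binds IMAP reagent (30 min, RT, dark). Enzyme (2.5 ng/well) reacted 60 min at RT with ATP/substrate/metal in HEPES pH 7.4 buffer with Tween 20 and DTT; no-enzyme wells define 0% activity; IC50 by curve fit.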

Another assay concerns the target T2, CDK4/cyclin D3 (Homo sapiens, UniProt P11802).
T2 construct: purchased Carna Biosciences, Inc. QS S Assist CDK4/Cyclin D3_FP Kit
Nature of the assay: Human CDK4/cyclin D3 inhibitory activity (QS S Assist CDK4/Cyclin D3_FP Kit, IMAP fluorescence polarization). Format: biochemical. As to conditions: 50% inhibitory concentration against CDK4/cyclin D3, given as class symbol. In short, it runs like this:
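IMAP fluorescence-polarization kinase assay with kit ATP/substrate/metal mix and 12.5 to 25 ng/well enzyme in 20 mM HEPES pH 7.4, 0.01% Tween20, 2 mM DTT. Reaction ran 45 min at room temperature, then binding reagent was added for 30 min in the dark. IC50 was taken from dose-response fits of percent inhibition.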

A word on the IC50: it is the concentration that inhibits the measured activity by half.

T2 sequence (P11802 whole entry): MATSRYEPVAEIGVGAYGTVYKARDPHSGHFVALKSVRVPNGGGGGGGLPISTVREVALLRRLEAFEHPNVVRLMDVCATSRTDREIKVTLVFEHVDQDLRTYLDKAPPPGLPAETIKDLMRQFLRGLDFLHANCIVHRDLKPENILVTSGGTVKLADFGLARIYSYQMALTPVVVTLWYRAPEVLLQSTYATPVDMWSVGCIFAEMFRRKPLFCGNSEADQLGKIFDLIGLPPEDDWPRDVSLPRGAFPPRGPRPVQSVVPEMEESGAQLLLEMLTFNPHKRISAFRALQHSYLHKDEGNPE
T2 sequence (P30281 whole entry partner): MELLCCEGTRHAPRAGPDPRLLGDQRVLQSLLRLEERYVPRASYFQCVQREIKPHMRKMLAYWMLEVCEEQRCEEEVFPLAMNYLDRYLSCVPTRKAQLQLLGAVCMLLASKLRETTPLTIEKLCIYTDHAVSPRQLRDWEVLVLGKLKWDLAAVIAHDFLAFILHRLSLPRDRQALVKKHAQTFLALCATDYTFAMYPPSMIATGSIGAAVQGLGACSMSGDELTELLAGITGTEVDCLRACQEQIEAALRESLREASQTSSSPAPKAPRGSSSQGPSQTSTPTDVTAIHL

Consider `CC(C)Nc1nc([C@@H](C)O)cc2cnc(Nc3ccc(N4CCN(CC(N)=O)CC4)nn3)nc12` [Compound 937], for which the IC50 against CDK2/cyclin A2 is no less than 100 nM; against CDK4/cyclin D3, less than 10 nM.

Take `CCCNc1nc([C@@H](C)O)cc2cnc(Nc3ccc4c(n3)CCNC4)nc12` [Compound 944]: the values for the IC50 at CDK2/cyclin A2 and against CDK4/cyclin D3 were no less than 100 nM and less than 10 nM, respectively.

`CCCNc1nc(C2(C)COC2)cc2cnc(Nc3ccc(N4CCNCC4)nn3)nc12` [Compound 945]: the IC50 at CDK2/cyclin A2 was no less than 100 nM; against CDK4/cyclin D3 it was less than 10 nM.

Consider `CCCNc1nc(C2CCOC2)cc2cnc(Nc3ccc(N4CCNCC4)nn3)nc12` (stereo not drawn) [Compound 946], for which the IC50 was no less than 100 nM against CDK2/cyclin A2 and less than 10 nM at CDK4/cyclin D3.

As to `CCCNc1nc(C2(C)COC2)cc2cnc(Nc3ccc4c(n3)CCNC4)nc12` [Compound 947], the IC50 is no less than 100 nM against CDK2/cyclin A2 and less than 10 nM against CDK4/cyclin D3.

For `CCCNc1nc(C2CCOC2)cc2cnc(Nc3ccc4c(n3)CCNC4)nc12` (stereo not drawn) [Compound 948], the values for the IC50 against CDK2/cyclin A2 and on CDK4/cyclin D3 were no less than 100 nM and less than 10 nM, respectively.

Turning to `CC(C)Nc1nc([C@@H](C)O)cc2cnc(Nc3ccc(Cn4cncn4)cn3)nc12` [Compound 949], the IC50 against CDK2/cyclin A2 is no less than 100 nM; against CDK4/cyclin D3, less than 10 nM.

On to `CC(C)Nc1nc([C@@H](C)O)cc2cnc(Nc3ccc(CC4CCNCC4)cn3)nc12` [Compound 950], for which the concentration for half-maximal inhibition (IC50) on CDK2/cyclin A2 was no less than 100 nM; at CDK4/cyclin D3, less than 10 nM.

For `CC(C)Nc1nc([C@@H](C)O)cc2cnc(Nc3ccc(CC4CCN(CCO)CC4)cn3)nc12` [Compound 951], the IC50 is no less than 100 nM on CDK2/cyclin A2 and less than 10 nM on CDK4/cyclin D3.

On to `C[C@@H](O)c1cc2cnc(Nc3ccc(CC4CCNCC4)cn3)nc2c(NCC2CCOCC2)n1` [Compound 952], for which the figures for the IC50 against CDK2/cyclin A2 and on CDK4/cyclin D3 were no less than 100 nM and less than 10 nM, respectively.

On to `C[C@@H](O)c1cc2cnc(Nc3ccc(CC4CCN(CCO)CC4)cn3)nc2c(NCC2CCOCC2)n1` [Compound 953], for which the results for the IC50 against CDK2/cyclin A2 and on CDK4/cyclin D3 were no less than 100 nM and less than 10 nM, respectively.

In the case of `CC(C)Nc1nc([C@@H](C)O)cc2cnc(Nc3ccc4c(n3)CCN(CCN3CCCC3=O)C4)nc12` [Compound 955], the IC50 against CDK2/cyclin A2 was no less than 100 nM; at CDK4/cyclin D3, less than 10 nM.

Consider `CO[C@H](C)c1cc2cnc(Nc3ccc(C4CCNCC4)cn3)nc2c(N[C@H]2CCCOC2)n1` [Compound 956], for which the figures for the IC50 against CDK2/cyclin A2 and at CDK4/cyclin D3 were no less than 100 nM and less than 10 nM, respectively.

Take `C[C@@H](O)c1cc2cnc(Nc3ccc(C4CCNCC4)cn3)nc2c(N[C@H]2CCCOC2)n1` [Compound 957]: the IC50 is no less than 100 nM against CDK2/cyclin A2 and less than 10 nM against CDK4/cyclin D3.

Turning to `CC(C)Nc1nc([C@@H](C)O)cc2cnc(Nc3ccc(-c4cncn4C)cn3)nc12` [Compound 958], the 50% inhibitory concentration (IC50) against CDK2/cyclin A2 was no less than 100 nM; against CDK4/cyclin D3 it was less than 10 nM.

Turning to `CCCNc1nc([C@@H](C)O)cc2cnc(Nc3ccc(-c4cncn4C)cn3)nc12` [Compound 959], the IC50 against CDK2/cyclin A2 was no less than 100 nM; against CDK4/cyclin D3, 10 to 100 nM.

For `CNC(=O)CN1CCN(c2ccc(Nc3ncc4cc([C@@H](C)O)nc(NC(C)C)c4n3)nn2)CC1` [Compound 960], the figures for the IC50 at CDK2/cyclin A2 and at CDK4/cyclin D3 were no less than 100 nM and less than 10 nM, respectively.

Take `CNC(=O)CN1CCN(c2ccc(Nc3ncc4cc([C@@H](C)O)nc(NC(C)C)c4n3)nc2)C(=O)C1` [Compound 961]: the 50% inhibitory concentration (IC50) at CDK2/cyclin A2 is no less than 100 nM; against CDK4/cyclin D3, less than 10 nM.

Turning to `CC(C)Nc1nc([C@@H](C)O)cc2cnc(Nc3ccc(N4CCN(CC(=O)N(C)C)CC4=O)cn3)nc12` [Compound 962], the values for the IC50 on CDK2/cyclin A2 and against CDK4/cyclin D3 were no less than 100 nM and less than 10 nM, respectively.

On to `CC(C)Nc1nc([C@@H](C)O)cc2cnc(Nc3ccc(N4CCN(CC(F)(F)F)CC4)nn3)nc12` [Compound 963], for which the IC50 is no less than 100 nM at CDK2/cyclin A2 and less than 10 nM against CDK4/cyclin D3.

For `CC(C)Nc1nc([C@@H](C)O)cc2cnc(Nc3ccc(N4CCn5cncc5C4)nn3)nc12` [Compound 964], the IC50 was no less than 100 nM against CDK2/cyclin A2 and less than 10 nM on CDK4/cyclin D3.

As for `Cc1ncn(Cc2ccc(Nc3ncc4cc([C@@H](C)O)nc(NC(C)C)c4n3)nc2)c1C(=O)O` [Compound 965], the half-maximal inhibitory concentration (IC50) against CDK2/cyclin A2 was no less than 100 nM; on CDK4/cyclin D3 it was 10 to 100 nM.

As to `CC(C)Nc1nc([C@@H](C)O)cc2cnc(Nc3ccc(N4CCN(CC(=O)N5CCCC5)CC4)nn3)nc12` [Compound 966], the values for the IC50 at CDK2/cyclin A2 and against CDK4/cyclin D3 were no less than 100 nM and less than 10 nM, respectively.

`CC(C)Nc1nc([C@@H](C)O)cc2cnc(Nc3ccc(N4CCN(CC(=O)N5CCOCC5)CC4)nn3)nc12` [Compound 967]: the concentration for half-maximal inhibition (IC50) against CDK2/cyclin A2 is no less than 100 nM; at CDK4/cyclin D3 it was less than 10 nM.

With `CC(C)NC(=O)CN1CCN(c2ccc(Nc3ncc4cc([C@@H](C)O)nc(NC(C)C)c4n3)nn2)CC1` [Compound 968], the concentration for half-maximal inhibition (IC50) against CDK2/cyclin A2 is no less than 100 nM; at CDK4/cyclin D3, less than 10 nM.

Consider `CO[C@H](C)c1cc2cnc(Nc3ccc(CN4CCN(CC#N)CC4)cn3)nc2c(NC(C)C)n1` [Compound 969], for which the IC50 at CDK2/cyclin A2 was no less than 100 nM; against CDK4/cyclin D3 it was 10 to 100 nM.

Regarding `CO[C@H](C)c1cc2cnc(Nc3ccc(CN4CCN(CC(N)=O)CC4)cn3)nc2c(NC(C)C)n1` [Compound 970], the figures for the IC50 against CDK2/cyclin A2 and against CDK4/cyclin D3 were no less than 100 nM and less than 10 nM, respectively.

Take `CNC(=O)CN1CCN(Cc2ccc(Nc3ncc4cc([C@@H](C)OC)nc(NC(C)C)c4n3)nc2)CC1` [Compound 971]: the values for the 50% inhibitory concentration (IC50) against CDK2/cyclin A2 and against CDK4/cyclin D3 were no less than 100 nM and less than 10 nM, respectively.

Take `CO[C@H](C)c1cc2cnc(Nc3ccc(CN4CCN(CC(=O)N(C)C)CC4)cn3)nc2c(NC(C)C)n1` [Compound 972]: the 50% inhibitory concentration (IC50) against CDK2/cyclin A2 was no less than 100 nM; against CDK4/cyclin D3, less than 10 nM.

With `CC(=O)c1cc2cnc(Nc3ccc(CN4CCN(CCO)CC4)cn3)nc2c(NCC(C)C)n1` [Compound 973], the IC50 was no less than 100 nM on CDK2/cyclin A2 and 10 to 100 nM against CDK4/cyclin D3.

For `CCCNc1nc(C(C)=O)cc2cnc(Nc3ccc(CN4CCN(CCO)CC4)cn3)nc12` [Compound 974], the concentration for half-maximal inhibition (IC50) at CDK2/cyclin A2 was no less than 100 nM; at CDK4/cyclin D3, 10 to 100 nM.

Take `CCCCNc1nc(C(C)=O)cc2cnc(Nc3ccc(CN4CCN(CCO)CC4)cn3)nc12` [Compound 975]: the results for the IC50 at CDK2/cyclin A2 and against CDK4/cyclin D3 were no less than 100 nM and 10 to 100 nM, respectively.

For the molecule `CCNc1nc([C@@H](C)O)cc2cnc(Nc3ccc(CN4CCN(C[C@H](C)O)CC4)cn3)nc12` [Compound 976], the IC50 against CDK2/cyclin A2 was no less than 100 nM; against CDK4/cyclin D3, less than 10 nM.

`CCNc1nc([C@@H](C)O)cc2cnc(Nc3ccc(CN4CCN(C[C@@H](C)O)CC4)cn3)nc12` [Compound 977]: the IC50 is no less than 100 nM against CDK2/cyclin A2 and less than 10 nM against CDK4/cyclin D3.

Turning to `CO[C@H](C)c1cc2cnc(Nc3ccc(CN4CCNC[C@H]4C)cn3)nc2c(NC(C)C)n1` [Compound 978], the IC50 on CDK2/cyclin A2 was no less than 100 nM; against CDK4/cyclin D3, less than 10 nM.

On to `CO[C@H](C)c1cc2cnc(Nc3ccc(CN4CCNC[C@@H]4C)cn3)nc2c(NC(C)C)n1` [Compound 979], for which the IC50 is no less than 100 nM against CDK2/cyclin A2 and less than 10 nM on CDK4/cyclin D3.

Take `CCNc1nc([C@@H](C)O)cc2cnc(Nc3ccc(N4CCN(C)CC4)nn3)nc12` [Compound 980]: the figures for the IC50 against CDK2/cyclin A2 and against CDK4/cyclin D3 were no less than 100 nM and less than 10 nM, respectively.

On to `CC(C)Nc1nc([C@@H](C)O)c(F)c2cnc(Nc3ccc(N4CCNCC4=O)cn3)nc12` [Compound 981], for which the figures for the IC50 on CDK2/cyclin A2 and on CDK4/cyclin D3 were 10 to 100 nM and less than 10 nM, respectively.

Consider `CCNc1nc([C@@H](C)O)cc2cnc(Nc3ccc(CN4CCN(CCO)C[C@H]4C)cn3)nc12` [Compound 982], for which the IC50 on CDK2/cyclin A2 was no less than 100 nM; against CDK4/cyclin D3 it was less than 10 nM.

(Values after patent publication US10124004B2, “Pyrido[3,4-d]pyrimidine derivative and pharmaceutically acceptable salt thereof” (Teijin Pharma Limited, priority 2015, dated 2018).)
